Assay results reported in PubChem BioAssay AID2060495 (Molecular Pharmacology Branch, DTP, NCI, 2025).

Tested on: 521955-158-R2-J5-PDC complex spheroid viability
Experiment: Anticancer human tumor 521955-158-R2-J5-PDC patient-derived pancreatic carcinoma cell line growth inhibition [GQUAD]
Conditions: for IC50: curve of first compound; for viability, T/C: stronger effect = lower value
Excerpt: DNA G-quadruplex Stabilizer Agents in Combinations in Complex Spheroids
A high-throughput screen of multi-cell type tumor spheroids was designed to identify active combinations of DNA G-quadruplex stabilizer agents and targeted small molecules. Complex spheroids include a stromal component modeled by human endothelial cells (HUVEC) and fibroblasts modeled by human mesenchymal stem cells (MSCs). The concentration ranges selected for each drug and investigational agent were based upon clinically achievable concentrations if the clinical Cmax of the agent was known.
Compounds. The drugs and investigational agents: pidnarulex (CX-5461; NSC782164), APTO-253 (NSC789042), BRACO-19 (NSC847499), peposertib (NSC802822), ceralasertib (NSC780249), elimusertib (NSC800525), camonsertib (NSC841442), AZD-1390 (NSC803789), olaparib (NSC753686), talazoparib (NSC767125), ART-558 (NSC835418), sotorasib (NSC818433), MRTX-1133 (NSC836407), SN-38 (NSC673596), topotecan (NSC609699), etoposide (NSC141540), doxorubicin (NSC123127), gemcitabine (NSC613327), 5-fluorouracil (NSC19893), paclitaxel (NSC125973), vemurafenib (NSC761431), panobinostat (NSC761190), R-306465 (JNJ-16241199; NSC773264), adavosertib (NSC754352), TP-3654 (NSC805149), carboplatin (NSC241240), KSQ-4279 (NSC840948), and staurosporine (NSC755774) were obtained from the National Cancer Institute (NCI) Developmental Therapeutics Program Chemical Repository (34). The FDA-approved anticancer drug set is available from the NCI Developmental Therapeutics Program. […] The stock solutions were prepared in dimethyl sulfoxide (DMSO, Sigma-Aldrich, St. Louis, MO, cat. D2650) at 800-fold the tested concentration and stored at -70 degrees C prior to their use. All drugs and investigational agents were tested over a range starting from a high concentration at or near the clinical Cmax and decreasing in half-log increments. If the clinical Cmax for an agent had not been determined, the highest concentration tested was 10 microM.
2.3 Cell Culture. All cells were maintained in an incubator at 37 degrees C and 5% CO2 with 95% humidity. The PDC lines were cultured according to standard operating procedures established by the NCI PDMR. All PDCs were thawed and cultured in Matrigel-coated flasks prepared with a working solution of 1X Ham's F-12 nutrient mix, without supplementation (Invitrogen, cat. 11765054), 100 U/mL penicillin-streptomycin (Invitrogen, cat. 15140122), and 2.5% Matrigel (Corning Inc., cat. 354248) for the first three passages. The 857933-349-R-J2-PDC line was cultured in 6C/Colon 1B media, which includes advanced DMEM/F-12 (Thermo Fisher Scientific, cat. 12634028), 10 mM HEPES (Thermo Fisher Scientific, cat. 15630080), 1X GlutaMAX supplement (Thermo Fisher Scientific, cat. 35050061), 0.1 mg/mL primocin (InvivoGen, cat. ant-pm-2), 10% defined fetal bovine serum, heat inactivated (HyClone Laboratories Inc., cat. SH30070.03HI), 50% L-WRN conditioned media (ATCC, cat. CRL-3276), 1.25 mM N-Acetyl-L-cysteine (Sigma-Aldrich, cat. A9165), 10 mM nicotinamide (Sigma-Aldrich, cat. N0636), 1X B-27 supplement (Thermo Fisher Scientific, cat. 17504044), 1X N-2 supplement (Thermo Fisher Scientific, cat. 17502048), 10 microM Y-27632 dihydrochloride (Tocris Bioscience, cat. 1254), and 50 ng/mL human EGF recombinant protein (Thermo Fisher Scientific, cat. PHG0311). The 485176-168-R4-J1-PDC line was cultured in Panc media, which includes all 6C/Colon 1B media components plus 100 ng/mL human FGF-10 (Thermo Fisher Scientific, cat. 100-26), 500 nM SB-431542 (Selleckchem, cat. S1067), and gastrin (Tocris, cat. 3006).
[…]
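Note: spheroids exposed to agents for one week before reading.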
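Throughout, for viability, T/C: 100% = DMSO vehicle control viability.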

Compound: C=CC(=O)N1CCN(c2nc(=O)n(-c3c(C)ccnc3C(C)C)c3nc(-c4c(O)cccc4F)c(F)cc23)C(C)C1 (configuration not stated) + CN(C)c1ccc(Nc2c3ccc(NC(=O)CCN4CCCC4)cc3nc3cc(NC(=O)CCN4CCCC4)ccc23)cc1
- IC50 (second compound 0.0316 µM): > 10 µM
- IC50 (second compound 0.1 µM): > 10 µM
- IC50 (second compound 0.316 µM): > 10 µM
- IC50 (second compound 1 µM): > 10 µM
- IC50 (second compound 3.16 µM): > 10 µM
- IC50 (second compound 10 µM): > 10 µM
- viability, T/C (second compound 0.0316 µM, first compound 0.0316 µM): 103%
- viability, T/C (second compound 0.0316 µM, first compound 0.1 µM): 94.1%
- viability, T/C (second compound 0.0316 µM, first compound 0.316 µM): 105%
- viability, T/C (second compound 0.0316 µM, first compound 1 µM): 96.8%
- viability, T/C (second compound 0.0316 µM, first compound 3.16 µM): 108%
- viability, T/C (second compound 0.0316 µM, first compound 10 µM): 101%
- viability, T/C (second compound 0.1 µM, first compound 0.0316 µM): 98.2%
- viability, T/C (second compound 0.1 µM, first compound 0.1 µM): 105%
- viability, T/C (second compound 0.1 µM, first compound 0.316 µM): 119%
- viability, T/C (second compound 0.1 µM, first compound 1 µM): 111%
- viability, T/C (second compound 0.1 µM, first compound 3.16 µM): 122%
- viability, T/C (second compound 0.1 µM, first compound 10 µM): 93.3%
- viability, T/C (second compound 0.316 µM, first compound 0.0316 µM): 91.7%
- viability, T/C (second compound 0.316 µM, first compound 0.1 µM): 90.4%
- viability, T/C (second compound 0.316 µM, first compound 0.316 µM): 101%
- viability, T/C (second compound 0.316 µM, first compound 1 µM): 114%
- viability, T/C (second compound 0.316 µM, first compound 3.16 µM): 101%
- viability, T/C (second compound 0.316 µM, first compound 10 µM): 95.3%
- viability, T/C (second compound 1 µM, first compound 0.0316 µM): 90.3%
- viability, T/C (second compound 1 µM, first compound 0.1 µM): 84.5%
- viability, T/C (second compound 1 µM, first compound 0.316 µM): 94.1%
- viability, T/C (second compound 1 µM, first compound 1 µM): 112%
- viability, T/C (second compound 1 µM, first compound 3.16 µM): 100%
- viability, T/C (second compound 1 µM, first compound 10 µM): 81.3%
- viability, T/C (second compound 3.16 µM, first compound 0.0316 µM): 71.7%
- viability, T/C (second compound 3.16 µM, first compound 0.1 µM): 87.5%
- viability, T/C (second compound 3.16 µM, first compound 0.316 µM): 85.5%
- viability, T/C (second compound 3.16 µM, first compound 1 µM): 96.9%
- viability, T/C (second compound 3.16 µM, first compound 3.16 µM): 96.7%
- viability, T/C (second compound 3.16 µM, first compound 10 µM): 73.5%
- viability, T/C (second compound 10 µM, first compound 0.0316 µM): 77.5%
- viability, T/C (second compound 10 µM, first compound 0.1 µM): 72.8%
- viability, T/C (second compound 10 µM, first compound 0.316 µM): 72.5%
- viability, T/C (second compound 10 µM, first compound 1 µM): 70.6%
- viability, T/C (second compound 10 µM, first compound 3.16 µM): 101%
- viability, T/C (second compound 10 µM, first compound 10 µM): 70.6%
